Assay results from US7268155B2, “Photosensitizer conjugates for pathogen targeting” (The General Hospital Corporation, priority 1997, dated 2007).

Legend:
[1] = tested on: HCPC-1 cells; test: Phototoxicity to HCPC-1 cells after irradiation, MTT assay; type: cell-based, hamster; details: 5 μM photosensitizer, light 630-710 nm, MTT 24 h after irradiation
Description: HCPC-1 cells, 2×10^4 in aliquots of 100 μl growth medium with 10% FCS, were seeded in 96-well plates and cultured for 24 h until 70% confluent. Six wells from each plate were incubated with 5 μM of each photosensitizer and irradiated using the conditions described in Example 3. After illumination, cells were incubated with fresh medium at 37° C. for 24 h. Control cells were incubated under the conditions as in Example 3. Cell viability was determined 24 h after irradiation using the MTT-microculture tetrazolium assay, a method that assesses dehydrogenase activity in mitochondria of live cells (Mosmann T. J. Immunol. Methods 65, 55-63, 1983), and survival fractions were calculated as 570 nm absorbance of treated cells divided by that of unirradiated controls.

[2] = tested on: P. gingivalis; type: cell-based, Porphyromonas gingivalis
Description: In order to establish the effectiveness and selectivity of these conjugates for killing bacteria while sparing mammalian cells, the three conjugates were compared to two widely used clinical photosensitizers, Photofrin II and benzoporphyrin derivative (BPD) (QLT Phototherapeutics Inc., Vancouver, BC). Photosensitizer bulk solid was dissolved in DMSO at 1 mM and diluted in TSB.
Suspensions of P. gingivalis cells (10^8/ml) were incubated in duplicate in the dark at room temperature for 1 min with 5 μm chlorin e6 equivalent of each conjugate, with Photofrin II, and with BPD. Cells were centrifuged, washed once with sterile PBS, and 1 ml fresh TSB was added. In the Example here, the ratios of uptake of chlorin e6 per mg cell protein in P. gingivalis and HCPC-1 cells for the cationic, anionic and neutral conjugates were 46:1, 60:1 and 22:1, respectively.
Bacterial suspensions were added to wells of 12-well plates, and were irradiated in the dark at room temperature using a light emitting diode array which emitted light with wavelengths from 630-710 nm, spanning the absorbance maxima of these photosensitizer compositions. Wells were exposed from below, using fluences from 0 to 25 J/cm^2 at an irradiance of 65 mW/cm^2. Plates were covered during illumination to maintain sterility of the cultures. After illumination of the appropriate wells, serial dilutions of the contents of each well were prepared in TSB, and duplicate 100 μl aliquots were spread on the surfaces of blood agar plates. Survival fractions in each well were calculated by counting the colonies on the plates and dividing by number of colonies from unirradiated controls incubated with photosensitizer in the dark at room temperature for periods equal to irradiation times. Other controls were: bacteria treated neither with photosensitizer nor light, and incubated at room temperature in the dark, and cells exposed to light in the absence of photosensitizer.

[3] = tested on: P. gingivalis; details: cited from earlier work
[4] = tested on: Porphyromonas gingivalis 381; test: Uptake of chlorin e6 conjugates by P. gingivalis cells (fluorescence of cell extract per mg cell protein); type: cell-based; details: P. gingivalis 10^9 cells/ml, 1 min incubation, at each concentration (1, 5 and 10 μm chlorin e6 equivalent)
Description: Porphyromonas gingivalis 381, a Gram negative bacterium and one of the most common species in dental plaque, was maintained by weekly subculture in Trypticase Soy Agar (TSA) with 1% hemin, 1% vitamin K and 5% sheep blood. For experimental purposes, the organism was grown anaerobically in a chamber with 80% N2, 10% CO2 at 35° C. for 48 h, harvested by centrifugation and resuspended in Trypticase Soy Broth (TSB) with 1% hemin and 1% vitamin K. Cells were dispersed by sonication and repeated passage through Pasteur pipettes. Cell numbers were measured in a spectrophotometer (at wavelength 600 nm, in which an O.D. of 1 yields 10^8 cells/ml) using one ml tubes, to obtain the appropriate number of bacteria for each experiment (10^9 cells/ml for uptake studies and 10^8 cells/ml for irradiation studies). […]
Fluorescence of each cell extract was measured on a spectrofluorimeter (model FluoroMax, SPEX Industries, Edison, N.J.). The excitation wavelength was 400 nm and emission spectra of cell suspensions were recorded from 580 to 700 nm. The protein content of each cell extract was determined by a modified Lowry method (Markwell M. A. et al. Anal. Biochem. 87:206, 1978) using bovine serum albumin dissolved in 0.1 M NaOH/1% SDS as a protein standard to construct calibration curves. Results were expressed as mol chlorin e6 taken up per mg cell protein.

| Substance | killing of HCPC-1 cells (in words) [1] | bacteria killed / reduction in viability of P. gingivalis [2] | further results |
| --- | --- | --- | --- |
| benzoporphyrin derivative [BPD, reference compound] | killed HCPC-1 cells |  | killing of P. gingivalis (in words) ([2]; 1 min incubation, light 630-710 nm, fluences 0 to 25 J/cm^2): not P. gingivalis |
| histatin-5 |  |  | number of molecules that bind P. gingivalis [3]: About 3,600 molecules; Kd ([3]; read-out: Kd of binding to P. gingivalis): ~1000 nM |
| polylysine chlorin e6 [polylysine-chlorin e6] |  | 99.9% | accumulation of the cationic conjugate compared to the anionic and neutral conjugates [4]: 2 times; HCPC-1 cells killed [1]: less than 2% |
| polylysine chlorin e6 acetylated [polylysine-chlorin e6-ac] | not HCPC-1 cells | over 90% |  |
| polylysine chlorin e6-succinylated [polylysine-chlorin e6-succ] |  | 66% |  |
